In article PMC7849180 (Frontiers in Pharmacology, 2020):
pIC50: −log10 of the molar value.

Experiments:
[1] = Food effect on plasma pharmacokinetics, 200 mg crossover; format: in vivo, human; conditions: for AUC0-t, geometric mean / AUC0-∞, geometric mean / Cmax, geometric mean / median Tmax: 200 mg
Experimental: For MAD cohorts, blood samples were collected at 0, 0.25, 0.5, 1, 1.5, 2, 3, 4, 5, 6, 8 and 12 h on day 1; 0 h on day 2, 3, 4, 6 and 7; 0, 0.25, 0.5, 1, 1.5, 2, 3, 4, 5, 6, 8, 12, 24, 36 and 48 h on day 10. In food effect cohort, blood samples were collected at 0, 0.25, 0.5, 1, 1.5, 2, 3, 4, 5, 6, 8, 12, 24, 36, 48, 72, 96 and 120 h in period one of group A; 0, 0.25, 0.5, 1, 1.5, 2, 3, 4, 5, 6, 8, 12, 24, 36 and 48 h in period two of group A and the two periods of group B. Blood samples were centrifuged at 3,000 rpm for 10 min at 2–8 °C and stored at -80 °C until liquid chromatography-mass spectrophotometry (LC-MS/MS) analysis. Urine and feces samples were collected in period one of group A of food effect cohort with the intervals 0, 0–6, 6–12, 12–24, 24–48, 48–72, 72–96, 96–120 and 0–120 h, respectively. […]
Statistical analysis was performed using SAS software, version 9.4 (SAS Institute Inc., United States). Descriptive statistics were used to summarize continuous variables as cases, means with standard deviations, medians, maximum and minimum. For categorical variables, frequencies and percentages were used. A regression power model, relating log-transformed Cmax and AUC parameters to log-transformed dose, was used to investigate dose proportionality. Food effect pharmacokinetic parameters were analyzed using the mixed effect model with period, sequence and treatment as fixed effects and subjects as the random effect. Logarithmic transformation of Cmax, AUC0-∞ and AUClast were performed to calculate the 90% confidence intervals (CIs) of the geometric mean ratio (GMR) between fasting and fed administration. If the calculated 90% CI values fall entirely within the range of 0.80–1.25, it is indicative of no significant food effect.

[2] = PK, 7-day intragastric dosing; format: in vivo, beagles; conditions: 122 mg/animal once daily
Experimental: Suzhou Zelgen Biopharmaceuticals Co., Ltd. Jaktinib Hydrochloride Tablets Chemical Drug Class 1 New Drug higher than ZG0163, which was higher than the ratio of intravenous administration. […]
produced through first-pass metabolism. Within the dosage range of 61-244 mg, the AUC0-t of ZG0245 increased proportionally with the increasing dosage.
Pharmacokinetics of 7 consecutive days of multi-dose intragastric […]
After 7 consecutive days of intragastric administration (2 tablets once daily, equal […]
respectively, when compared to single-dose administration. The Cmax and AUC0-t of metabolite ZG0245 were 1.33 and 0.95 times compared to single-dose administration.
Thus, there was no significant accumulation of ZG0163 and metabolite ZG0245 after 7 days of consecutive administration. […]
intragastric administration of 61 mg ZG0163.
ZG0128, and the exposure was 93.0% of that of the medium dosage group (122 […]
of that of the medium dosage group (122 mg/animal).
Identification of Metabolites in Rat Samples
Using UPLC-UV/Q-TOF MS, potential metabolites were identified in rat plasma, urine, feces and bile, after single intragastric administration of 30.5 mg/kg ZG0128, as well as metabolites in mice plasma after single intragastric administration of 61 mg/kg ZG0128. […]

JAK2 = JAK2 (Homo sapiens, UniProt O60674); assay: Phosphorylation of STAT3 by JAK2; format: biochemical
Source text: Suzhou Zelgen Biopharmaceuticals Co., Ltd. Jaktinib Hydrochloride Tablets Chemical Drug Class 1 New Drug has been completed. The ongoing toxicity tests include a long-term 39-week toxicity test in Beagle dogs by oral administration, a reproductive toxicity test in rats during the teratogenic sensitive period, and a reproductive toxicity test in rabbits during the teratogenic sensitive period.
Preclinical Pharmacodynamic Study
Study on the in vitro Pharmacodynamic Effects of ZG0163 at the […]
In this study, the effects of ZG0163 was similar to those of positive control compounds, ZG0164 and ZG0178.
Study on the in vitro Pharmacodynamic Effects of ZG0163 at the Cellular Level (Ba/F3-EpoR-JAK2V617F cells)
JAK2V617F cell line, the compound ZG0163 was able to induce apoptosis of pathogenic cells and eliminate abnormal cell proliferation by inhibiting the JAK-STAT signaling pathway, thus achieving treatment efficacy in myeloproliferative neoplasms. […]
cell line, manifested as significant inhibition of phosphorylation of JAK2 and its downstream signaling proteins ERK and STAT5. The effects of ZG0163 was similar to those of positive control compounds, ZG0164 and ZG0178.
EpoR-JAK2V617F, which was similar to those of positive control compounds, ZG0164

test strains = assay: Ames test; conditions: 9.76–6100 μg/mL, with or without S9
Source text: Suzhou Zelgen Biopharmaceuticals Co., Ltd. Jaktinib Hydrochloride Tablets

[3] = Metabolic stability in liver microsomes; format: in vitro ADME, mouse
Experimental: The metabolic stability of ZG0128 (the dihydrochloride monohydrate of ZG0163) was evaluated using human, monkey, dog, rat, and mouse liver microsomes as the in vitro models. The percentages of residues for ZG0128 after incubating in human, monkey, dog, rat, and mouse liver microsomes for 60 minutes was 55.5%, 63.1%, 67.1%, 80.3%, and 79.0%, respectively. The CLint values of in vivo clearance were calculated to be 24.1, 21.6, 33.4, 10.7, 26.0 mL/min/kg, respectively. Thus its was speculated that ZG0128 was a medium clearance drug in humans, monkeys, and mice, a high clearance drug in dogs, and a low clearance drug in rats.
Using UPLC-UV/Q-TOF MS, the potential metabolites of ZG0128 in various liver microsomes (human, monkey, dog, rat and mouse liver microsomes) incubation systems were identified and the metabolic pathways of ZG0128 were speculated. The main metabolite of ZG0128 in above five types of liver microsomes were primary alcohol metabolite formed by morpholine ring-opening (M3). […]

Chain of JAK2 (O60674 whole entry): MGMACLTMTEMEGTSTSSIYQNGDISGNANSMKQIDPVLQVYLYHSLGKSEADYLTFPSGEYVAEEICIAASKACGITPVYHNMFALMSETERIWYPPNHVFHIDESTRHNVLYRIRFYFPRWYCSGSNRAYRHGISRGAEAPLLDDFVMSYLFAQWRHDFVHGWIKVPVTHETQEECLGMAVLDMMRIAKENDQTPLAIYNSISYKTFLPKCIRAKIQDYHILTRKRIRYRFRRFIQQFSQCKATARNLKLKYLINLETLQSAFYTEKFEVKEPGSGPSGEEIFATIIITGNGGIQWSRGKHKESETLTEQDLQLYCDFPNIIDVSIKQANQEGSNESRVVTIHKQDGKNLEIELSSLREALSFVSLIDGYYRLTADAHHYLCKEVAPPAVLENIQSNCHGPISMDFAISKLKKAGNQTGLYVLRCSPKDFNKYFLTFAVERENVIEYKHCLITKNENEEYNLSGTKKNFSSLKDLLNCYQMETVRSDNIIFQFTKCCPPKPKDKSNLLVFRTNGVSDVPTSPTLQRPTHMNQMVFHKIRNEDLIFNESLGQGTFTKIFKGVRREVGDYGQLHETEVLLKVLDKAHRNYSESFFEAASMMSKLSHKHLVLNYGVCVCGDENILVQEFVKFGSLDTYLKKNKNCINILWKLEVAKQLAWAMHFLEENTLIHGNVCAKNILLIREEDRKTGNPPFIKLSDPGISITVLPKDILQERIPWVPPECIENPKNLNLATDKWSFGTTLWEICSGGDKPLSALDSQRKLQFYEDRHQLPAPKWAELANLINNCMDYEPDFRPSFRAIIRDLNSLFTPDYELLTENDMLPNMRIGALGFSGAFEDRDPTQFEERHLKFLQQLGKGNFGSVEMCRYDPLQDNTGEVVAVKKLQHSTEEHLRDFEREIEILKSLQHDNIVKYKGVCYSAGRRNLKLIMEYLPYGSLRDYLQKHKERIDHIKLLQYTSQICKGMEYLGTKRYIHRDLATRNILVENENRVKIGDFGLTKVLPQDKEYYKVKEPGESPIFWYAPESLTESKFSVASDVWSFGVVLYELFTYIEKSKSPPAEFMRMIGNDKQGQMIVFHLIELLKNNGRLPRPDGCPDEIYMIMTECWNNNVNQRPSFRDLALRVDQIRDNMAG

Compound	Cmax, geometric mean (CV%) ([1]; 200 mg fasted)	Tmax, median (min–max) ([1]; 200 mg fasted)	Cmax, geometric mean (CV%) ([1]; 200 mg fed)	Tmax, median (min–max) ([1]; 200 mg fed)	AUC0-t, geometric mean ([1]; fasted (n = 12)) [ng·h/mL]	AUC0-∞, geometric mean ([1]; fasted (n = 12)) [ng·h/mL]	Cmax, geometric mean ([1]; fasted (n = 12)) [ng/mL]	median Tmax ([1]; fasted state) [h]	AUC0-t, geometric mean ([1]; fed (n = 12)) [ng·h/mL]	AUC0-∞, geometric mean ([1]; fed (n = 12)) [ng·h/mL]	Cmax, geometric mean ([1]; fed (n = 12)) [ng/mL]	median Tmax ([1]; fed state) [h]	AUC0-t, geometric mean ratio ([1]; fed vs fasted)	AUC0-∞, geometric mean ratio ([1]; fed vs fasted)	Cmax, geometric mean ratio ([1]; fed vs fasted)	day on which steady state was reached [2] [days]	pIC50 (JAK2)	Ames test result (test strains)	CLint of in vivo clearance [3] [mL/min/kg]	percentage of residue after 60 minutes [3] [%]
Jaktinib	237.98 (69.0) ng/ml	2.00 (0.50–5.00) h	542.35 (32.1) ng/ml	4.00 (3.00–5.00) h	1569.48	1616.35	237.98	2	4174.9	4207.38	542.35	4	2.66	2.60	2.28	5	~7.00	–	–	–
Cl.Cl.O.[2H]C1([2H])COCC([2H])([2H])N1c1ccc(Nc2nccc(-c3ccc(C(=O)NCC#N)cc3)n2)cc1 [ZG0128, Jaktinib Dihydrochloride Monohydrate]	–	–	–	–	–	–	–	–	–	–	–	–	–	–	–	–	–	negative	26.0	79.0
